Reference: ChEMBL document CHEMBL1201862, “PubChem BioAssay data set” (2004)
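Cells were grown in 96-well plates and exposed to each compound for 48 hours at five concentrations; endpoints were interpolated linearly between bracketing concentrations, or set to the highest concentration if not reached. GI50: concentration for 50% inhibition of growth.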 Calls of active or inactive are those of the source. Rule as the data show it: active = GI50 up to about 1.1 µM and inactive = higher.

How the values were obtained:
Experiment in all cases: inhibition of tumour cell growth, NCI panel, 48 h
786-0 = tested on: 786-0
A498 = tested on: A498
A549 = tested on: A549
ACHN = tested on: ACHN
CAKI-1 = tested on: CAKI-1
CCRF-CEM = tested on: CCRF-CEM
COLO 205 = tested on: COLO 205
DLD-1 = tested on: DLD-1
DMS-114 = tested on: DMS-114
DMS-273 = tested on: DMS-273
EKVX = tested on: EKVX
HCC 2998 = tested on: HCC 2998
HCT-116 = tested on: HCT-116
HCT-15 = tested on: HCT-15
HL-60 = tested on: HL-60
HOP-62 = tested on: HOP-62
HOP-92 = tested on: HOP-92
HT-29 = tested on: HT-29
IGROV-1 = tested on: IGROV-1
K562 = tested on: K562
KM-20L2 = tested on: KM-20L2
KM12 = tested on: KM12
LXFL 529 = tested on: LXFL 529
M19-MEL = tested on: M19-MEL
MOLT-4 = tested on: MOLT-4
NCI-H23 = tested on: NCI-H23
NCI-H460 = tested on: NCI-H460
OVCAR-3 = tested on: OVCAR-3
OVCAR-4 = tested on: OVCAR-4
OVCAR-8 = tested on: OVCAR-8
RPMI-8226 = tested on: RPMI-8226
RXF 393 = tested on: RXF 393
RXF 631 = tested on: RXF 631
SF-295 = tested on: SF-295
SF-539 = tested on: SF-539
SK-MEL-28 = tested on: SK-MEL-28
SK-MEL-2 = tested on: SK-MEL-2
SK-OV-3 = tested on: SK-OV-3
SN12C = tested on: SN12C
SNB-19 = tested on: SNB-19
SNB-75 = tested on: SNB-75
SNB-78 = tested on: SNB-78
SR = tested on: SR
SW-620 = tested on: SW-620
U-251 = tested on: U-251
UACC-257 = tested on: UACC-257
UACC-62 = tested on: UACC-62
UO-31 = tested on: UO-31
XF498 = tested on: XF498
LOX IMVI = tested on: LOX IMVI
M14 = tested on: M14
Malme-3M = tested on: Malme-3M
NCI-H226 = tested on: NCI-H226
NCI-H522 = tested on: NCI-H522
SF-268 = tested on: SF-268

COc1ccc(-c2cc(=O)c3cc(C)c(C)c(C(=O)O)c3o2)cc1
GI50 (786-0): > 100 µM (inactive) | GI50 (A498): > 100 µM (inactive) | GI50 (A549): > 100 µM (inactive) | GI50 (ACHN): 17.9 µM (inactive) | GI50 (CAKI-1): > 100 µM (inactive) | GI50 (CCRF-CEM): > 100 µM (inactive) | GI50 (COLO 205): > 100 µM (inactive) | GI50 (DLD-1): > 100 µM (inactive) | GI50 (DMS-114): 15.3 µM (inactive) | GI50 (DMS-273): > 100 µM (inactive) | GI50 (EKVX): > 100 µM (inactive) | GI50 (HCC 2998): > 100 µM (inactive) | GI50 (HCT-116): > 100 µM (inactive) | GI50 (HCT-15): > 100 µM | GI50 (HL-60): > 100 µM (inactive) | GI50 (HOP-62): > 100 µM (inactive) | GI50 (HOP-92): < 0.01 µM (active) | GI50 (HT-29): > 100 µM (inactive) | GI50 (IGROV-1): > 100 µM (inactive) | GI50 (K562): > 100 µM (inactive) | GI50 (KM-20L2): > 100 µM (inactive) | GI50 (KM12): > 100 µM (inactive) | GI50 (LXFL 529): > 100 µM (inactive) | GI50 (M19-MEL): > 100 µM (inactive) | GI50 (MOLT-4): > 100 µM (inactive) | GI50 (NCI-H23): > 100 µM (inactive) | GI50 (NCI-H460): > 100 µM (inactive) | GI50 (OVCAR-3): > 100 µM (inactive) | GI50 (OVCAR-4): > 100 µM (inactive) | GI50 (OVCAR-8): > 100 µM (inactive) | GI50 (RPMI-8226): > 100 µM (inactive) | GI50 (RXF 393): > 100 µM (inactive) | GI50 (RXF 631): > 100 µM (inactive) | GI50 (SF-295): > 100 µM (inactive) | GI50 (SF-539): > 100 µM (inactive) | GI50 (SK-MEL-28): > 100 µM (inactive) | GI50 (SK-MEL-2): > 100 µM (inactive) | GI50 (SK-OV-3): > 100 µM (inactive) | GI50 (SN12C): > 100 µM (inactive) | GI50 (SNB-19): > 100 µM (inactive) | GI50 (SNB-75): > 100 µM (inactive) | GI50 (SNB-78): > 100 µM (inactive) | GI50 (SR): > 100 µM (inactive) | GI50 (SW-620): > 100 µM (inactive) | GI50 (U-251): > 100 µM (inactive) | GI50 (UACC-257): > 100 µM (inactive) | GI50 (UACC-62): 13.6 µM (inactive) | GI50 (UO-31): > 100 µM (inactive) | GI50 (XF498): > 100 µM (inactive)

C[C@@H]1CC2(N=CCS2)[C@]2(O)O[C@@H]3C[C@@]4(C)[C@H](C[C@H]3O[C@@H]2O1)C[C@H]1O[C@]12[C@@H]4[C@H](O)C(=O)[C@]1(C)C(C3=CC(=O)OC3)CC[C@]21O (some centres undefined)
GI50 (786-0): < 0.01 µM (active) | GI50 (A498): 0.0138 µM (active) | GI50 (ACHN): < 0.01 µM (active) | GI50 (CAKI-1): 0.011 µM (active) | GI50 (CCRF-CEM): < 0.01 µM (active) | GI50 (COLO 205): 0.0304 µM (active) | GI50 (DLD-1): < 0.01 µM (active) | GI50 (DMS-114): < 0.01 µM (active) | GI50 (DMS-273): < 0.01 µM (active) | GI50 (HCC 2998): 0.0281 µM (active) | GI50 (HCT-116): < 0.01 µM (active) | GI50 (HL-60): 0.0123 µM (active) | GI50 (HOP-62): < 0.01 µM (active) | GI50 (HOP-92): 0.0306 µM (active) | GI50 (IGROV-1): 0.0254 µM (active) | GI50 (K562): 0.0194 µM (active) | GI50 (LOX IMVI): 0.0114 µM (active) | GI50 (LXFL 529): < 0.01 µM (active) | GI50 (M14): 0.0227 µM (active) | GI50 (M19-MEL): 0.0282 µM (active) | GI50 (MOLT-4): < 0.01 µM (active) | GI50 (Malme-3M): 0.0129 µM (active) | GI50 (NCI-H226): 0.0292 µM (active) | GI50 (NCI-H23): < 0.01 µM (active) | GI50 (NCI-H522): < 0.01 µM (active) | GI50 (OVCAR-4): < 0.01 µM (active) | GI50 (RPMI-8226): 0.022 µM (active) | GI50 (RXF 631): 0.0251 µM (active) | GI50 (SF-268): < 0.01 µM (active) | GI50 (SF-539): < 0.01 µM (active) | GI50 (SK-MEL-28): 0.0255 µM (active) | GI50 (SK-MEL-2): 0.0264 µM (active) | GI50 (SK-OV-3): 0.0314 µM (active) | GI50 (SN12C): < 0.01 µM (active) | GI50 (SNB-75): 0.0289 µM (active) | GI50 (SNB-78): 0.0132 µM (active) | GI50 (SR): < 0.01 µM (active) | GI50 (UACC-62): 0.0229 µM (active) | GI50 (UO-31): 0.0284 µM (active) | GI50 (XF498): 0.0187 µM (active)
